Holding throughout (type): cell-based
One assay has as its system Staph. Aureus. As to the kind of experiment: in vitro antibacterial activity (MIC), Staph. Aureus. To be noted: Staphylococcus aureus. An excerpt: (§1) The MIC is expressed as μg/ml.
A further assay concerns Staph. Aureus Tour. As to the kind of experiment: in vitro antibacterial activity (MIC), Staph. Aureus Tour. To be noted: Staphylococcus aureus.
From the text: as §1

The subject of another assay is Strept. haemolyticus. As to the kind of experiment: in vitro antibacterial activity (MIC), Strept. haemolyticus.
From the text: as §1

For the next assay, the system named is Strept. faecalis. As to the kind of experiment: in vitro antibacterial activity (MIC), Strept. faecalis. To be noted: Enterococcus faecalis.
From the text: as §1

The test system of a further assay is Strept. pneumoniae. As to the kind of experiment: in vitro antibacterial activity (MIC), Strept. pneumoniae. To be noted: Streptococcus pneumoniae.
From the text: as §1

The test system of another assay is Proteus vulgaris. As to the kind of experiment: in vitro antibacterial activity (MIC), Proteus vulgaris.
From the text: as §1

In the next assay the test system is Escherichia coli. The experiment in a line: in vitro antibacterial activity (MIC), Escherichia coli.
From the text: as §1

The subject of another assay is Kleb. pneumoniae. As to the kind of experiment: in vitro antibacterial activity (MIC), Kleb. pneumoniae. As to conditions: Klebsiella pneumoniae.
From the text: as §1

The next assay has as its system Pseud. aeruginosa. As to the kind of experiment: in vitro antibacterial activity (MIC), Pseud. aeruginosa. To be noted: Pseudomonas aeruginosa.
From the text: as §1

The next assay concerns Myc. Tub. H37 Rv. The experiment in a line: in vitro antibacterial activity (MIC), Myc. Tub. H37 Rv.

SMILES strings stand for the structures. In brackets after ≈: the same amount, converted by molar mass.

Results on 7 molecules are retold here after patent US4169834A, “Rifamycin derivatives” (Gruppo Lepetit S.p.A., priority 1977, dated 1979).

The term MIC denotes the smallest concentration in the dilution series that meets the test's criterion for growth inhibition. Read a low MIC as a more susceptible organism. With `CCc1nc2c(s1)c1c(O)c3c(O)c(C)c4c(c32)C(=O)C(C)(OC=CC(OC)C(C)C(OC(C)=O)C(C)C(O)C(C)C(O)C(C)C=CC=C(C)C(=O)N1)O4` (stereo not shown) [Example 1, 4-Deoxy-2'-ethyl-thiazolo[5,4-c]rifamycin SV], the MIC was 0.0004 µg/mL (≈ 0.000522 µM) against Staph. Aureus; 0.00078 µg/mL (≈ 0.00102 µM) against Staph. Aureus Tour; 0.012 µg/mL (≈ 0.0156 µM) with Strept. haemolyticus; 0.0062 µg/mL (≈ 0.00808 µM) against Strept. faecalis; 0.0062 µg/mL (≈ 0.00808 µM) against Strept. pneumoniae; 6.25 µg/mL (≈ 8.15 µM) in the assay on Proteus vulgaris. The MIC with Escherichia coli came out at 12.5 µg/mL (≈ 16.3 µM); in the assay with Kleb. pneumoniae, 25 µg/mL (≈ 32.6 µM); against Pseud. aeruginosa it was 12.5 µg/mL (≈ 16.3 µM); with Myc. Tub. H37 Rv it was 0.31 µg/mL (≈ 0.404 µM).
Consider `COC1C=COC2(C)Oc3c(C)c(O)c4c(O)c(c5sc(C)nc5c4c3C2=O)NC(=O)C(C)=CC=CC(C)C(O)C(C)C(O)C(C)C(OC(C)=O)C1C` (stereo not shown) [Example 2, 4-Deoxy-2'-methyl-thiazolo[5,4-c]rifamycin SV], for which the minimal inhibitory concentration (MIC) against Staph. Aureus is 0.00078 µg/mL (≈ 0.00104 µM); against Staph. Aureus Tour it was 0.0031 µg/mL (≈ 0.00412 µM); against Strept. haemolyticus, 0.0031 µg/mL (≈ 0.00412 µM); in the assay with Strept. faecalis, 0.0031 µg/mL (≈ 0.00412 µM); with Strept. pneumoniae, 0.0062 µg/mL (≈ 0.00824 µM); in the assay with Proteus vulgaris, 1.56 µg/mL (≈ 2.07 µM). The MIC in the assay with Escherichia coli turned out to be 12.5 µg/mL (≈ 16.6 µM); against Kleb. pneumoniae, 25 µg/mL (≈ 33.2 µM); against Pseud. aeruginosa, 25 µg/mL (≈ 33.2 µM); against Myc. Tub. H37 Rv, 0.62 µg/mL (≈ 0.824 µM).
Take `CCCc1nc2c(s1)c1c(O)c3c(O)c(C)c4c(c32)C(=O)C(C)(OC=CC(OC)C(C)C(OC(C)=O)C(C)C(O)C(C)C(O)C(C)C=CC=C(C)C(=O)N1)O4` (stereo not shown) [Example 3, 4-Deoxy-2'-propyl-thiazolo[5,4-c]rifamycin SV]: the MIC in the assay with Staph. Aureus stood at 0.00078 µg/mL (≈ 0.000999 µM); in the assay with Staph. Aureus Tour, 0.00156 µg/mL (≈ 0.002 µM); against Strept. haemolyticus, 0.0031 µg/mL (≈ 0.00397 µM); with Strept. faecalis, 0.00156 µg/mL (≈ 0.002 µM); against Strept. pneumoniae, 0.00078 µg/mL (≈ 0.000999 µM); against Proteus vulgaris, 3.12 µg/mL (≈ 4 µM). The MIC came out at 12.5 µg/mL (≈ 16 µM) against Escherichia coli, 25 µg/mL (≈ 32 µM) with Kleb. pneumoniae, 12.5 µg/mL (≈ 16 µM) against Pseud. aeruginosa and 0.62 µg/mL (≈ 0.794 µM) in the assay on Myc. Tub. H37 Rv.
As to `COC1C=COC2(C)Oc3c(C)c(O)c4c(O)c(c5sc(C(C)C)nc5c4c3C2=O)NC(=O)C(C)=CC=CC(C)C(O)C(C)C(O)C(C)C(OC(C)=O)C1C` (stereo not shown) [Example 4, 4-Deoxy-2'-isopropyl-thiazolo[5,4-c]rifamycin SV], the MIC is 0.00078 µg/mL (≈ 0.000999 µM) against Staph. Aureus; 0.00156 µg/mL (≈ 0.002 µM) in the assay with Staph. Aureus Tour; 0.012 µg/mL (≈ 0.0154 µM) in the assay on Strept. haemolyticus; 0.012 µg/mL (≈ 0.0154 µM) against Strept. faecalis; 0.012 µg/mL (≈ 0.0154 µM) against Strept. pneumoniae; 6.25 µg/mL (≈ 8 µM) with Proteus vulgaris. The minimum inhibitory concentration (MIC) in the assay with Escherichia coli was 12.5 µg/mL (≈ 16 µM); against Kleb. pneumoniae it was 25 µg/mL (≈ 32 µM); with Pseud. aeruginosa it was 12.5 µg/mL (≈ 16 µM); against Myc. Tub. H37 Rv, 0.31 µg/mL (≈ 0.397 µM).
Take `COC1C=COC2(C)Oc3c(C)c(O)c4c(O)c(c5sc(CC(C)C)nc5c4c3C2=O)NC(=O)C(C)=CC=CC(C)C(O)C(C)C(O)C(C)C(OC(C)=O)C1C` (stereo not shown) [Example 5, 4-Deoxy-2'-isobutyl-thiazolo[5,4-c]rifamycin SV]: the MIC with Staph. Aureus was found to be 0.00078 µg/mL (≈ 0.000981 µM); with Staph. Aureus Tour, 0.001 µg/mL (≈ 0.00126 µM); in the assay on Strept. haemolyticus, 0.001 µg/mL (≈ 0.00126 µM); in the assay on Strept. faecalis it was 0.0062 µg/mL (≈ 0.0078 µM); in the assay on Strept. pneumoniae, 0.0062 µg/mL (≈ 0.0078 µM); in the assay on Proteus vulgaris it was 3.12 µg/mL (≈ 3.92 µM). Besides, the MIC in the assay on Escherichia coli was determined as 12.5 µg/mL (≈ 15.7 µM); against Kleb. pneumoniae, 50 µg/mL (≈ 62.9 µM); against Pseud. aeruginosa it was 12.5 µg/mL (≈ 15.7 µM); against Myc. Tub. H37 Rv, 0.15 µg/mL (≈ 0.189 µM).
For the molecule `CCCCCCc1nc2c(s1)c1c(O)c3c(O)c(C)c4c(c32)C(=O)C(C)(OC=CC(OC)C(C)C(OC(C)=O)C(C)C(O)C(C)C(O)C(C)C=CC=C(C)C(=O)N1)O4` (stereo not shown) [Example 6, 4-Deoxy-2'-hexyl-thiazolo[5,4-c]rifamycin SV], the minimal inhibitory concentration (MIC) came to 0.0012 µg/mL (≈ 0.00146 µM) in the assay on Staph. Aureus; 0.0031 µg/mL (≈ 0.00377 µM) against Staph. Aureus Tour; 0.012 µg/mL (≈ 0.0146 µM) in the assay on Strept. haemolyticus; 0.012 µg/mL (≈ 0.0146 µM) in the assay with Strept. faecalis; 0.012 µg/mL (≈ 0.0146 µM) with Strept. pneumoniae; 3.12 µg/mL (≈ 3.79 µM) in the assay on Proteus vulgaris. Also, the MIC came out at 12.5 µg/mL (≈ 15.2 µM) against Escherichia coli, 25 µg/mL (≈ 30.4 µM) in the assay with Kleb. pneumoniae, 12.5 µg/mL (≈ 15.2 µM) in the assay with Pseud. aeruginosa and 1.2 µg/mL (≈ 1.46 µM) in the assay on Myc. Tub. H37 Rv.
On to `COC1C=COC2(C)Oc3c(C)c(O)c4c(O)c(c5scnc5c4c3C2=O)NC(=O)C(C)=CC=CC(C)C(O)C(C)C(O)C(C)C(O)C1C` (stereo not shown) [Example 8, 25-Desacetyl-4-deoxy-thiazolo[5,4-c]rifamycin SV], for which the MIC against Staph. Aureus was determined as 0.02 µg/mL (≈ 0.0287 µM); in the assay on Staph. Aureus Tour it was 0.1 µg/mL (≈ 0.144 µM); in the assay on Strept. haemolyticus it was 0.1 µg/mL (≈ 0.144 µM); with Strept. faecalis it was 0.4 µg/mL (≈ 0.574 µM); against Strept. pneumoniae it was 0.1 µg/mL (≈ 0.144 µM); in the assay on Proteus vulgaris, 0.78 µg/mL (≈ 1.12 µM). For the same molecule, the MIC was determined as 6.25 µg/mL (≈ 8.97 µM) with Escherichia coli, 12.5 µg/mL (≈ 17.9 µM) in the assay with Kleb. pneumoniae, 12.5 µg/mL (≈ 17.9 µM) with Pseud. aeruginosa and 0.6 µg/mL (≈ 0.861 µM) with Myc. Tub. H37 Rv.
